Experimental data reported in ChEMBL document CHEMBL1130372, “Synthesis and evaluation of putative oxocarbenium intermediate mimic in the KDO8P synthase-catalyzed reaction as a tool for the design of potent inhibitors for lipopolysaccharide biosynthesis” (Bioorg Med Chem Lett, 1997).

Experiment: The inhibitory activity was evaluated against homogeneous KDO 8-P synthase from Escherichia coli by varying PEP at saturating concentrations of A5P (0.5 mM)

Q: Which Ki does the source give for O=C(O)CN(CC(O)C(O)C(O)[C@H](O)COP(=O)(O)O)CP(=O)(O)O (stereo partly specified) here?
A: Its Ki is 3.3 µM.
